Test results as given in publication PMC9250534, “Synthesis and direct assay of large macrocycle diversities by combinatorial late-stage modification at picomole scale” (Nature Communications, 2022).
Numbered stars: 1 amine (or outer) side, 2 acyl side, 3 side chain; on linkers, the order of the positions; unused ones are H or OH. Bridge positions count the residues as written; N and C are the ends. Square brackets hold non-standard residues; d marks the D form. Peptide text beside a SMILES is read from it. * marks the point of attachment. Isoorotoyl = O=C(c1c[nH]c(=O)[nH]c1=O)*; Pyrazinecarbonyl = O=C(c1cnccn1)*; Phenoxyacetyl = O=C(COc1ccccc1)*; Cysteamide = C(CS[*:3])N[*:1]; X3 = O=C(Cc1c[nH]c2ccccc12)*; Mpa = O=C(O)CCS

Biological target: T1, thrombin (Homo sapiens, UniProt P00734)
T1 construct: consists of two polypeptide chains of 36 (light chain) and 259 amino acid
Experiment: Thrombin inhibition screen of crude macrocycle reactions (residual thrombin activity, fluorogenic substrate Z-Gly-Gly-Arg-AMC)
Assay type: biochemical
Settings: 10 µM macrocycle concentration; crude reactions, Library 1a-l; scaffold AA1-AA2-AA3 combined with 1-16 or '-'
Outline: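 Residual activity was measured as the AMC release rate after adding 50 μM Z-Gly-Gly-Arg-AMC. This followed a 10-min room-temperature preincubation of 2 nM thrombin with 10 μM single macrocycles in pH 7.4 Tris buffer (0.6% DMSO). Percent inhibition was taken against the mean slope of DMSO controls.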

Row | Compound | percent residual thrombin activity [%]
1 | CC[C@H](C)[C@@H]1NC(=O)[C@H](CCCCNC(=O)c2ccco2)NC(=O)CCSSCCNC(=O)C2(CC2)CNC1=O [D1-I-B6/16] | 103.501
2 | NC(=O)CCC1NC(=O)C(CCCCNC(=O)c2cnccn2)NC(=O)CCSSCCNC(=O)C2CCCN2C1=O (centres unmarked) [D1-Q-B1/2] ([Mpa]K(Pyrazinecarbonyl)QP-Cysteamide; disulfide 1-C; configuration not given here) | 104.356
3 | NC(=O)CC[C@@H]1NC(=O)[C@H](CCCCNC(=O)c2c[nH]c(=O)[nH]c2=O)NC(=O)CCSSCCNC(=O)[C@@H]2CCCN2C1=O [D1-Q-B1/11] ([Mpa]K(Isoorotoyl)QP-Cysteamide; disulfide 1-C) | 109.119
4 | NC(=O)CC[C@@H]1NC(=O)[C@H](CCCCNC(=O)Cc2c[nH]c3ccccc23)NC(=O)CCSSCCNC(=O)[C@@H]2CCCN2C1=O [D1-Q-B1/12] ([Mpa]K(X3)QP-Cysteamide; disulfide 1-C) | 104.82
5 | NC(=O)CC[C@@H]1NC(=O)[C@H](CCCCNC(=O)COc2ccccc2)NC(=O)CCSSCCNC(=O)[C@@H]2CCCN2C1=O [D1-Q-B1/13] ([Mpa]K(Phenoxyacetyl)QP-Cysteamide; disulfide 1-C) | 104.037
6 | NCCCC[C@@H]1NC(=O)CCSSCCNC(=O)[C@@H]2CCCN2C(=O)[C@H](CCC(N)=O)NC1=O [D1-Q-B1/-] ([Mpa]KQP-Cysteamide; disulfide 1-C) | 108.142
7 | COc1ccc(C(=O)NCCCC[C@@H]2NC(=O)CCSSCCNC(=O)c3ccc(cc3)CNC(=O)[C@H](CO)NC2=O)cn1 [D1-S-B3/10] | 111.469
8 | O=C(COc1ccccc1)NCCCC[C@@H]1NC(=O)CCSSCCNC(=O)c2ccc(cc2)CNC(=O)[C@H](CO)NC1=O [D1-S-B3/13] | 115.568
9 | Cc1nnsc1C(=O)NCCCC[C@@H]1NC(=O)CCSSCCNC(=O)c2ccc(cc2)CNC(=O)[C@H](CO)NC1=O [D1-S-B3/15] | 113.1
10 | COc1ccc(C(=O)NCCCC[C@@H]2NC(=O)CCSSCCNC(=O)C3(CC3)CNC(=O)[C@H](CO)NC2=O)cn1 [D1-S-B6/10] | 102.192
11 | O=C1CCSSCCNC(=O)C2(CC2)CNC(=O)[C@H](CO)NC(=O)[C@H](CCCCNC(=O)c2c[nH]c(=O)[nH]c2=O)N1 [D1-S-B6/11] | 103.758
12 | CC(C)CC(=O)NCCCC[C@@H]1NC(=O)CCSSCCNC(=O)C2(CC2)CNC(=O)[C@H](C(C)C)NC1=O [D1-V-B6/8] | 110.303
13 | CC(C)[C@@H]1NC(=O)[C@H](CCCCNC(=O)c2c[nH]c(=O)cn2)NC(=O)CCSSCCNC(=O)C2(CC2)CNC1=O [D1-V-B6/9] | 106.409
14 | Cc1nnsc1C(=O)NCCCC[C@@H]1NC(=O)CCSSCCNC(=O)C2(CC2)CNC(=O)[C@H](C(C)C)NC1=O [D1-V-B6/15] | 112.935
15 | CC(C)[C@@H]1NC(=O)[C@H](CCCCNC(=O)c2ccco2)NC(=O)CCSSCCNC(=O)C2(CC2)CNC1=O [D1-V-B6/16] | 107.867
16 | CC[C@H](C)[C@@H]1NC(=O)CCNC(=O)[C@H](CCCNC(=O)c2ccc(OC)nc2)NC(=O)CCSSCCNC1=O [D2-B2-I/10] | 104.624
17 | CC[C@H](C)[C@@H]1NC(=O)CCNC(=O)[C@H](CCCNC(=O)c2c[nH]c(=O)[nH]c2=O)NC(=O)CCSSCCNC1=O [D2-B2-I/11] | 113.677
18 | CC[C@H](C)[C@@H]1NC(=O)CCNC(=O)[C@H](CCCNC(=O)c2ccco2)NC(=O)CCSSCCNC1=O [D2-B2-I/16] | 111.823
19 | O=C1CCSSCCNC(=O)[C@@H](Cc2ccc(O)cc2)NC(=O)CCNC(=O)[C@H](CCCNC(=O)c2ccccc2)N1 [D2-B2-y/1] | 109.22
20 | CC(C)CC(=O)NCCC[C@@H]1NC(=O)CCSSCCNC(=O)[C@H](CCC(N)=O)NC(=O)c2ccc(cc2)CNC1=O [D2-B3-Q/8] | 112.114
21 | NC(=O)CC[C@@H]1NC(=O)c2ccc(cc2)CNC(=O)[C@H](CCCNC(=O)c2c[nH]c(=O)cn2)NC(=O)CCSSCCNC1=O [D2-B3-Q/9] | 109.29

Further lines, results first:

Row | percent residual thrombin activity [%] | Compound
22 | 114.755 | NC(=O)CC[C@@H]1NC(=O)c2ccc(cc2)CNC(=O)[C@H](CCCNC(=O)c2c[nH]c(=O)[nH]c2=O)NC(=O)CCSSCCNC1=O [D2-B3-Q/11]
23 | 110.86 | CC(C)CC(=O)NCCC[C@@H]1NC(=O)CCSSCCNC(=O)[C@H](C(C)C)NC(=O)[C@H]2CCCN(C2)C1=O [D2-B4-V/8]
24 | 108.833 | COc1ccc(C(=O)NCCC[C@@H]2NC(=O)CCSSCCNC(=O)[C@H](C(C)C)NC(=O)[C@H]3CCCN(C3)C2=O)cn1 [D2-B4-V/10]
25 | 112.633 | CC(C)[C@@H]1NC(=O)[C@H]2CCCN(C2)C(=O)[C@H](CCCNC(=O)COc2ccccc2)NC(=O)CCSSCCNC1=O [D2-B4-V/13]
26 | 102.581 | CC(C)[C@@H]1NC(=O)[C@H]2CCCN(C2)C(=O)[C@H](CCCNC(=O)c2ccc(Cl)s2)NC(=O)CCSSCCNC1=O [D2-B4-V/14]
27 | 109.579 | O=C1CCSSCCNC(=O)[C@@H](Cc2ccccc2)NC(=O)[C@H]2CCCN(C2)C(=O)[C@H](CCCNC(=O)c2c[nH]c(=O)cn2)N1 [D2-B4-f/9]
28 | 107.675 | COc1ccc(C(=O)NCCC[C@@H]2NC(=O)CCSSCCNC(=O)[C@@H](Cc3ccccc3)NC(=O)[C@H]3CCCN(C3)C2=O)cn1 [D2-B4-f/10]
29 | 82.899 | O=C1CCSSCCNC(=O)[C@@H](Cc2ccccc2)NC(=O)[C@H]2CCCN(C2)C(=O)[C@H](CCCNC(=O)c2ccc(Cl)s2)N1 [D2-B4-f/14]
30 | 99.7053 | Cc1cc(C(=O)NCCC[C@@H]2NC(=O)CCSSCCNC(=O)[C@H](Cc3cnc[nH]3)NC(=O)c3cccc(c3)CNC2=O)no1 [D2-B5-H/3]
31 | 99.4462 | O=C(Cc1c[nH]c2ccccc12)NCCC[C@@H]1NC(=O)CCSSCCNC(=O)[C@H](Cc2c[nH]cn2)NC(=O)c2cccc(c2)CNC1=O [D2-B5-H/12]
32 | 105.187 | O=C(COc1ccccc1)NCCC[C@@H]1NC(=O)CCSSCCNC(=O)[C@H](Cc2cnc[nH]2)NC(=O)c2cccc(c2)CNC1=O [D2-B5-H/13]
33 | 105.304 | Cc1nnsc1C(=O)NCCC[C@@H]1NC(=O)CCSSCCNC(=O)[C@H](Cc2c[nH]cn2)NC(=O)c2cccc(c2)CNC1=O [D2-B5-H/15]
34 | 101.891 | O=C1CCSSCCNC(=O)[C@H](Cc2cnc[nH]2)NC(=O)c2cccc(c2)CNC(=O)[C@H](CCCNC(=O)c2ccco2)N1 [D2-B5-H/16]
35 | 100.592 | CC(C)CC(=O)NCCC[C@@H]1NC(=O)CCSSCCNC(=O)[C@H](Cc2ccc(O)cc2)NC(=O)c2cccc(c2)CNC1=O [D2-B5-Y/8]
36 | 96.9489 | COc1ccc(C(=O)NCCC[C@@H]2NC(=O)CCSSCCNC(=O)[C@H](Cc3ccc(O)cc3)NC(=O)c3cccc(c3)CNC2=O)cn1 [D2-B5-Y/10]
37 | 99.266 | O=C(Cc1c[nH]c2ccccc12)NCCC[C@@H]1NC(=O)CCSSCCNC(=O)[C@H](Cc2ccc(O)cc2)NC(=O)c2cccc(c2)CNC1=O [D2-B5-Y/12]
38 | 78.2447 | O=C1CCSSCCNC(=O)[C@H](Cc2ccc(O)cc2)NC(=O)c2cccc(c2)CNC(=O)[C@H](CCCNC(=O)c2ccc(Cl)s2)N1 [D2-B5-Y/14]
